Measurements published in PubChem BioAssay AID1919004 (Molecular Pharmacology Branch, DTP, NCI, 2023).
“And” between values parts separate entries of the source, which are not always exact repeats. Equal entries are not always repeated.

System: 883617-216-R-J1-PDC complex spheroids, growth, % test/control
Experiment: Anticancer human tumor 883617-216-R-J1-PDC patient-derived bladder carcinoma cell line growth inhibition [AhR]
Details: for viability, T/C: stronger effect = lower value
From the text: Multicellular complex tumor spheroid response to aryl hydrocarbon receptor antagonists in combination with a variety of drugs and investigational agents in selected tumor cell lines
The current study was undertaken to assess response to aryl hydrocarbon receptor antagonists in combination with standard-of-care drugs and investigational agents in solid tumor complex spheroid models. Complex spheroids include a stromal component modeled by human endothelial cells (HUVEC) and fibroblasts modeled by human mesenchymal stem cells (MSCs). The concentration ranges selected for each drug and investigational agent were based upon clinically achievable concentrations if the clinical Cmax of the agent was known.
Compounds. The drugs and investigational agents: BAY 2416964 (NSC825713), GNF351 (NSC835774), CH-223191 (NSC835775), CPI-455 (NSC825282), aza-TdCyd (NSC777586), decitabine (NSC127716), belinostat (NSC758774), entinostat (NSC756642), pevonedistat (NSC761192), tazemetostat (NSC777109), talazoparib (NSC765396), olaparib (NSC753686), selinexor (NSC780203), nedisertib (M3814, NSC802822), bortezomib (NSC756655), venetoclax (NSC766270), doxorubicin (NSC123127), elimusertib (BAY189344, NSC800525), ceralasertib (AZD6738, NSC777638), TAK-243 (NSC785004), alisertib (NSC759677), etoposide (NSC141540), topotecan (NSC609699), eribulin (NSC707389), gemcitabine (NSC613327), carboplatin (NSC241240), cisplatin (NSC119875), and SN-38 (NSC673596) were obtained from the National Cancer Institute (NCI) Developmental Therapeutics Program Chemical Repository (32). The FDA-approved anticancer drug set is available from the Developmental Therapeutics Program at https://dtp.cancer.gov/organization/dscb/obtaining/available plates.htm. […] The stock solutions were prepared in dimethyl sulfoxide (DMSO, Sigma-Aldrich, St. Louis, MO, cat. D2650), except for the platinum compounds which were prepared in saline (Quality Biological, Gaithersburg, MD, cat. 114-055-101), at 800-fold the tested concentration and stored at -70 degrees C prior to their use. All drugs and investigational agents were tested over a range starting from a high concentration at or near the clinical Cmax and decreasing in half-log increments. If the clinical Cmax for an agent had not been determined, the highest concentration tested was 10 microM (Table 1).
Cell Culture. All cells were maintained in an incubator at 37 degrees C and 5% CO2 with 95% humidity. The PDC lines were cultured according to standard operating procedures established by the NCI PDMR (https://pdmr.cancer.gov). Briefly, all PDCs were thawed and cultured in Matrigel-coated flasks prepared with a working solution of 1X Ham's F-12 nutrient mix, without supplementation (Invitrogen, Waltham, MA, cat. 11765054), 100 U/mL penicillin-streptomycin (Invitrogen, cat. 15140122), and 2.5% Matrigel (Corning Inc., Corning, NY, cat. 354248) for the first three passages. All PDCs were cultured in complete DMEM/F-12 media containing advanced DMEM/F-12 (Invitrogen, cat. 12634028), 4.9% defined fetal bovine serum, heat inactivated (HyClone Laboratories Inc., Logan, UT, cat. SH30070.03HI), 389 ng/mL hydrocortisone (Sigma-Aldrich, cat. H4001), 9.7 ng/mL human EGF recombinant protein (Invitrogen, cat. PHG0313), 23.4 microg/mL adenine (Sigma-Aldrich, cat. A2786), 97.3 U/mL penicillin-streptomycin (Invitrogen, cat. 15140122), 1.9 mM L-glutamine (Invitrogen, cat. 25030081), and 9.7 microM Y-27632 dihydrochloride (Tocris Bioscience, Bristol, United Kingdom, cat. 1254). The PDCs were cultured in complete DMEM/F12 media without 10 microM Y-27632 dihydrochloride for at least two passages prior to the screen. The established cell lines NCI-H1341 and […] were cultured in DMEM/F-12, HEPES (Invitrogen, cat. 11330032), 5% defined fetal bovine serum (HyClone Laboratories Inc., cat. SH30070.03), ITS premix universal culture supplement [insulin (5 microg/mL), transferrin (5 microg/mL), and selenious acid (5 ng/mL)] […]

[1] = curve of first compound, second compound 0.1 µM
[2] = curve of first compound, second compound 0.316 µM
[3] = curve of first compound, second compound 1 µM
[4] = curve of first compound, second compound 3.16 µM
[5] = curve of first compound, second compound 10 µM
[6] = second compound 0.1 µM, first compound 0.0316 µM
[7] = second compound 0.1 µM, first compound 0.1 µM
[8] = second compound 0.1 µM, first compound 0.316 µM
[9] = second compound 0.1 µM, first compound 1 µM
[10] = second compound 0.1 µM, first compound 3.16 µM
[11] = second compound 0.1 µM, first compound 10 µM
[12] = second compound 0.316 µM, first compound 0.0316 µM
[13] = second compound 0.316 µM, first compound 0.1 µM
[14] = second compound 0.316 µM, first compound 0.316 µM
[15] = second compound 0.316 µM, first compound 1 µM
[16] = second compound 0.316 µM, first compound 3.16 µM
[17] = second compound 0.316 µM, first compound 10 µM
[18] = second compound 1 µM, first compound 0.0316 µM
[19] = second compound 1 µM, first compound 0.1 µM
[20] = second compound 1 µM, first compound 0.316 µM
[21] = second compound 1 µM, first compound 1 µM
[22] = second compound 1 µM, first compound 3.16 µM
[23] = second compound 1 µM, first compound 10 µM
[24] = second compound 3.16 µM, first compound 0.0316 µM
[25] = second compound 3.16 µM, first compound 0.1 µM
[26] = second compound 3.16 µM, first compound 0.316 µM
[27] = second compound 3.16 µM, first compound 1 µM
[28] = second compound 3.16 µM, first compound 3.16 µM
[29] = second compound 3.16 µM, first compound 10 µM
[30] = second compound 10 µM, first compound 0.0316 µM
[31] = second compound 10 µM, first compound 0.1 µM
[32] = second compound 10 µM, first compound 0.316 µM
[33] = second compound 10 µM, first compound 1 µM
[34] = second compound 10 µM, first compound 3.16 µM
[35] = second compound 10 µM, first compound 10 µM
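Further: exposure lasted 7 days after dosing on day 3 of spheroid growth.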

For CCc1c2c(nc3ccc(O)cc13)-c1cc3c(c(=O)n1C2)COC(=O)[C@]3(O)CC, the viability, T/C (compound 0.000949 µM) was 88.9% and 98.2% and 69%, the viability, T/C (compound 0.003 µM) was 82.4% and 85.1% and 111% and the viability, T/C (compound 0.00949 µM) was 72.4% and 70.3% and 75.6%. For the same compound, the viability, T/C (compound 0.03 µM) was 79.9% and 64.4% and 83.5%, the viability, T/C (compound 0.0949 µM) was 68.2% and 57.1% and 75.1% and the viability, T/C (compound 0.3 µM) was 44.6% and 41% and 84.5%. The IC50 (curve of compound) was 234 nM and 137 nM and > 300 nM.
Compound CC(C)c1c(-c2ccccc2)nc2c(C#N)c[nH]n2c1=O + CC(CO)NC(=O)c1cc(-c2ccc(Cl)cc2)nn(-c2cnn(C)c2)c1=O has an IC50 [1] of over 10000 nM, an IC50 [2] of over 10000 nM and an IC50 [3] of over 10000 nM. For the same compound, the IC50 [4] was over 10000 nM, the IC50 [5] was over 10000 nM and the viability, T/C [6] was 77.3%. It also gave a viability, T/C [7] of 71.2%, a viability, T/C [8] of 66.1% and a viability, T/C [9] of 70.4%. For the same compound, the viability, T/C [10] was 84.5%, the viability, T/C [11] was 96% and the viability, T/C [12] was 94.8%. It also gave a viability, T/C [13] of 85.2%, a viability, T/C [14] of 65.7% and a viability, T/C [15] of 74%. The viability, T/C [16] was 91.4%, the viability, T/C [17] was 75.6% and the viability, T/C [18] was 59.7%. It also gave a viability, T/C [19] of 97.8%, a viability, T/C [20] of 103% and a viability, T/C [21] of 92.6%. The viability, T/C [22] was 87.1%, the viability, T/C [23] was 78.3% and the viability, T/C [24] was 95.2%. For the same compound, the viability, T/C [25] was 92.5%, the viability, T/C [26] was 75.2% and the viability, T/C [27] was 79.3%. The viability, T/C [28] was 51%, the viability, T/C [29] was 57.7% and the viability, T/C [30] was 79.4%. For the same compound, the viability, T/C [31] was 87.1%, the viability, T/C [32] was 106% and the viability, T/C [33] was 57.8%. For the same compound, the viability, T/C [34] was 64% and the viability, T/C [35] was 62.5%.
In the case of O=C(C=Cc1cccc(S(=O)(=O)Nc2ccccc2)c1)NO, the viability, T/C (compound 0.0316 µM) is reported as 107% and 95.8% and 72.5%, the viability, T/C (compound 0.1 µM) is reported as 112% and 96.7% and 77.7% and the viability, T/C (compound 0.316 µM) is reported as 92.8% and 76% and 74.6%. The viability, T/C (compound 1 µM) was 68.9% and 73.4% and 93.9%, the viability, T/C (compound 3.16 µM) was 40.8% (2×) and 35.7% and the viability, T/C (compound 10 µM) was 2.89% and 2.67% and 2.49%. For the same compound, the IC50 (curve of compound) was 2130 nM and 2250 nM and 2170 nM.
In the case of COc1ccc([C@@H](O)c2cc(-c3ncnc4cc(N5CCOCC5)ccc34)c(F)cc2Cl)nn1 + Cc1cncc(-c2nc(NCCc3c[nH]c4ccccc34)c3ncn(C(C)C)c3n2)c1, the IC50 [1] is reported as 2650 nM, the IC50 [2] is reported as 2400 nM and the IC50 [3] is reported as 4070 nM. The IC50 [4] was 3530 nM, the IC50 [5] was under 31.6 nM and the viability, T/C [6] was 89.8%. The viability, T/C [7] was 82.6%, the viability, T/C [8] was 78.2% and the viability, T/C [9] was 67.5%. For the same compound, the viability, T/C [10] was 45.5%, the viability, T/C [11] was 34.1% and the viability, T/C [12] was 93.6%. For the same compound, the viability, T/C [13] was 103%, the viability, T/C [14] was 87.9% and the viability, T/C [15] was 67.1%. It also gave a viability, T/C [16] of 45.6%, a viability, T/C [17] of 35.3% and a viability, T/C [18] of 100%. For the same compound, the viability, T/C [19] was 95.4%, the viability, T/C [20] was 85.9% and the viability, T/C [21] was 76.7%. It also gave a viability, T/C [22] of 50.7%, a viability, T/C [23] of 39.3% and a viability, T/C [24] of 103%. The viability, T/C [25] was 102%, the viability, T/C [26] was 94.9% and the viability, T/C [27] was 79.9%. The viability, T/C [28] was 51.4%, the viability, T/C [29] was 33.3% and the viability, T/C [30] was 39.6%. The viability, T/C [31] was 39.3%, the viability, T/C [32] was 38.9% and the viability, T/C [33] was 30.4%. It also gave a viability, T/C [34] of 19.2% and a viability, T/C [35] of 10.9%.
